Patent US20130085133A1, “ANTI-VIRAL TREATMENT AND ASSAY TO SCREENFOR ANTI-VIRAL AGENT” (Sourthern Research Institute Office of Commercialization …, priority 2010, published 2013)

What was measured:
[1] = system: respiratory syncytial virus (RSV) strain Long; assay: microbe, parasite or virus in culture; conditions: human respiratory syncytial virus, HEp-2, 144 h
Procedure: The assay measures RSV virus-induced CPE in HEp-2 cells using cell viability as the end point.
Two vials of RSV (strain Long) containing 1×10^7 pfu/mL was thawed using an Eppendorf thermomixer for 13 min at 15° C., with shaking at 350 rpm. […] The cells were incubated for 18-20 h at 37° C., 5% CO2, 90% relative humidity. The medium was aspirated and the cells washed with 10 mL PBS without Mg^2+ or Ca^2+. Cells were harvested from flasks using 0.25% trypsin-EDTA. The cells were resuspended in a freezing medium of 95% fetal calf serum and 5% DMSO to a final cell density of 2×10^6 cells/mL. One mL aliquots of this virus infected cell suspension were dispensed to cryovials and cells were rate frozen to −80° C. Frozen infected cells were then transferred to −150° C. for long term storage.
(§1) Test compounds were evaluated by measuring their antiviral activity, cell toxicity, and selectivity. Test compounds were serially diluted in a plate to plate matrix or “stacked plate” matrix. All 320 compounds in a source plate were diluted together resulting in a 10 point dose response dilution series. It was visualized as a serial dilution series proceeding vertically through a stack of plates with the high dose plate on top and the low dose plate on the bottom.
Cells were harvested and resuspended to 80,000 cells per ml in Complete DMEM/F12.
Cells were thawed in a room temperature water bath with gentle agitation. The tube was inverted 5-10. Cells were diluted to 80,000 cells per ml by adding the contents of the vial to 24 ml of cold (4° C.) media.
Twenty five ul of uninfected HEp-2 cells were plated in the cell control wells. Frozen infected cells were combined with uninfected HEp-2 cells at a 1:100 ratio. Twenty five ul of the cell mixture was added to the virus control and compound wells. All cell plating was conducted using a Matrix WellMate and cells were maintained at room temperature with stirring during the plating process. The assay plates were incubated for six days at 37° C., 5% CO2 and 90% relative humidity.
(§2) Following the six day incubation period, the assay plates were equilibrated to room temperature for 30 min and an equal volume (30 μL) of Cell Titer-Glo reagent (Promega Inc.) was added to each well using a WellMate (Matrix, Hudson, N.H.) and plates were incubated for an additional 10 min at room temperature. At the end of the incubation, luminescence was measured using a Perkin Elmer Envision™ multi-label reader (PerkinElmer, Wellesley, Mass.) with an integration time of 0.1 s.
(§3) Data was analyzed using ActivityBase software (IDBS, Inc, Guilford, UK). thirty two control wells containing cells only and twenty four wells containing cells and virus were included on each assay plate and used to calculate Z′ value for each plate and to normalize the data on a per plate basis. […] Eight ribavirin positive control wells were included on each plate for quality control purposes, but were not used in Z′ calculations. […] In the toxicity assay, results are described as percent viability and the calculation is the same.
(§4) An EC50 (for CPE inhibition) and IC50 (for cell viability) were calculated for each substance using the 4 parameter Levenburg-Marquardt algorithm with parameter A locked at 0 and parameter B locked at 100. Standard deviation, normalized chi2 and hill slope were used to evaluate the curves. Values were not extrapolated beyond the tested range of concentrations.

[2] = cytotoxicity assay (percent viability of HEp-2 cells, Cell Titer-Glo); conditions: human
Procedure: as §1, §2, §3, §4

| Compound | EC50 [1] | CC50 at 6 days ([2]; HEp-2 cells) | CC50 at 6 days [2] [µg/mL] |
| --- | --- | --- | --- |
| CC(C)(C)c1ccc(C(=O)N2CCC(C(=O)Nc3ccc4c(c3)OCO4)CC2)cc1 [AB00317272] | 22.3 µg/mL | > 25 µg/mL | – |
| CCCCC(=O)Nc1cccc(NC(=O)c2ccccc2OC)c1 [AB00317410] | 22.8 µg/mL | > 25 µg/mL | – |
| CC(C)(C)c1ccc(C(=O)N2CCC(C(=O)Nc3ccccc3Cl)CC2)cc1 [AB00317604] | 23.7 µg/mL | > 25 µg/mL | – |
| CCOc1cc(C2CC(=O)Nc3c2ccc2ccccc32)cc(Cl)c1O (centres unmarked) [AB00317685] | 20.9 µg/mL | > 25 µg/mL | – |
| Cn1c(SC/C=C/c2ccccc2)nnc1-c1cccs1 [AB00318335] | 24.2 µg/mL | > 25 µg/mL | – |
| COC(=O)C1=C(C)N(Cc2ccccc2)C(=O)NC1c1ccc(C(=O)OC)cc1 (centres unmarked) [AB00318401] | 2.39 µg/mL | > 25 µg/mL | – |
| CCCCC(=O)Nc1cccc(NC(=O)c2ccc(OCC)c([N+](=O)[O-])c2)c1 [AB00318606] | 23.5 µg/mL | > 25 µg/mL | – |
| Cc1ccnc(NCc2cc(Br)ccc2O)c1 [AB00318952] | 22.2 µg/mL | > 25 µg/mL | – |
| Cc1ccccc1C(=O)NC(=S)Nc1cccc(F)c1 [AB00319373] | 24.4 µg/mL | > 25 µg/mL | – |
| C=CCNc1cc(N2CCN(C(=O)c3ccc(C)cc3)CC2)ccc1[N+](=O)[O-] [AB00319534] | 13.8 µg/mL | > 25 µg/mL | – |
| CNc1cc(N2CCCC2)ccc1[N+](=O)[O-] [AB00322577] | 18.7 µg/mL | > 25 µg/mL | – |
| O=Cc1cc(Br)c(Sc2ncccn2)o1 [AB00326733] | 18.8 µg/mL | > 25 µg/mL | – |
| CCOC(=O)C1=C(C)Nc2ncnn2C1c1ccc(OC)c(OCC)c1 (centres unmarked) [AB00335740] | 21.1 µg/mL | > 25 µg/mL | – |
| COc1ccc(-c2nc3ccccc3s2)cc1O [AB00339206] | 21.9 µg/mL | > 25 µg/mL | – |
| CN(C)C(=O)Oc1ccc2ccccc2c1Cl [AB00339302] | 12.3 µg/mL | – | > 25 |
| Cc1cc(C)cc(C(=O)Nc2ccc(C#N)cc2)c1 [AB00340723] | 19.8 µg/mL | > 25 µg/mL | – |
| N#C/C(=C\c1ccc(-c2ccc(Cl)c(Cl)c2)o1)C(N)=S [AB00344427] | 17.9 µg/mL | > 25 µg/mL | – |
| Fc1cccc(NC(=S)NNC(=S)Nc2ccc(Cl)cc2)c1 [AB00348154] | 10.6 µg/mL | > 25 µg/mL | – |
| CCOC(=O)c1ccc(NC(=O)NCCc2ccccc2OC)cc1 [AB00348268] | 21.4 µg/mL | > 25 µg/mL | – |
| CC(=O)c1cccc(NC(=S)NNC(=S)Nc2ccc(F)cc2F)c1 [AB00349666] | 21.2 µg/mL | > 25 µg/mL | – |
| CCOC(=O)c1ccc(NC(=O)NC(C)C2CCCO2)cc1 (centres unmarked) [AB00349705] | 19.2 µg/mL | > 25 µg/mL | – |

| Compound | EC50 [1] | CC50 at 6 days ([2]; HEp-2 cells) | CC50 at 6 days [2] [µg/mL] |
| --- | --- | --- | --- |
| COC(=O)c1sc2cc(NC(=S)NCCCN3CCCC3=O)ccc2c1Cl [AB00351451] | 17.5 µg/mL | > 25 µg/mL | – |
| COc1ccc(-c2ccc(-c3noc(-c4ccco4)n3)c(OC)n2)cc1 [AB00353001] | 18.4 µg/mL | > 25 µg/mL | – |
| CCOC(=O)C1=C(c2ccccc2)NC(=S)NC1c1ccccc1OCC(=O)Nc1ccccc1 (centres unmarked) [AB00355044] | 6.39 µg/mL | > 25 µg/mL | – |
| Cc1ccc(NC(=O)CN2CCCC2)c(Br)c1 [AB00358122] | 20.1 µg/mL | > 25 µg/mL | – |
| Cc1nc(N)sc1-c1nnc(Nc2ccccc2)s1 [AB00358926] | 12.7 µg/mL | > 25 µg/mL | – |
| CC(=O)Nc1ccc(C(=O)OCc2ccc(C(C)=O)cc2)cc1 [AB00359127] | 18.9 µg/mL | > 25 µg/mL | – |
| CC1CCCCN1C(=O)c1ccc(NC(=O)c2ccccc2Cl)cc1 (centres unmarked) [AB00359707] | 11.4 µg/mL | > 25 µg/mL | – |
| COc1ccc(S(=O)(=O)N2CCC(C(=O)N3CCN(c4ccccc4)CC3)CC2)cc1Cl [AB00362388] | 17 µg/mL | > 25 µg/mL | – |
| C=CCN(CC=C)C(=O)c1ccc(OC)c(I)c1 [AB00362750] | 21 µg/mL | > 25 µg/mL | – |
| Fc1cnc(N2CCOCC2)nc1N1CCc2ccccc21 [AB00362810] | 21.1 µg/mL | > 25 µg/mL | – |
| S=C(c1ccc(OCc2cccc3ccccc23)cc1)N1CCOCC1 [AB00362891] | 23.4 µg/mL | > 25 µg/mL | – |
| CC1(C)Cc2c(sc(NC(=O)c3ccccc3Br)c2C(N)=O)CO1 [AB00363547] | 13.3 µg/mL | > 25 µg/mL | – |
| CCC(=O)Nc1ccc(C(=O)OCc2cccc(F)c2)cc1 [AB00363859] | 12.6 µg/mL | > 25 µg/mL | – |
| COc1ccc(-n2nnnc2SCCO)cc1 [AB00364099] | 19.2 µg/mL | > 25 µg/mL | – |
| COc1ccc(NC(=O)c2ccc(C)c(S(=O)(=O)Nc3ccccc3C)c2)cc1OC [AB00364640] | 11.5 µg/mL | > 25 µg/mL | – |
| CCOC(=O)c1ccc(NC(=O)Nc2ccccc2OC)cc1 [AB00365318] | 11.6 µg/mL | > 25 µg/mL | – |
| CC(Oc1ccc(-c2ccccc2)cc1)C(=O)Nc1nnc(C2CCCO2)s1 (centres unmarked) [AB00365647] | 19.3 µg/mL | > 25 µg/mL | – |
| O=C(Nc1c(F)cc(F)cc1Br)c1ccc(Cl)s1 [AB00366410] | 20.2 µg/mL | > 25 µg/mL | – |
| O=C(NC1=NCCS1)c1cc2c(s1)CCCCCC2 [AB00367559] | 19.6 µg/mL | > 25 µg/mL | – |
| CCn1c(=O)n(CC)c2cc(NC(=O)c3ccccc3Cl)c(Br)cc21 [AB00369510] | 10.4 µg/mL | > 25 µg/mL | – |
| CSc1ccc(Cl)c(C(=O)Nc2ccc(Cc3ccccn3)cc2)c1 [AB00369798] | 11.6 µg/mL | > 25 µg/mL | – |

| Compound | EC50 [1] | CC50 at 6 days ([2]; HEp-2 cells) | CC50 at 6 days [2] [µg/mL] |
| --- | --- | --- | --- |
| O=C(Nc1ccc2c(c1)ncn2C1CCCCC1)c1cccs1 [AB00369934] | 13.6 µg/mL | > 25 µg/mL | – |
| c1coc(-c2nn3c(Cn4nnc5ccccc54)nnc3s2)c1 [AB00370063] | 1.97 µg/mL | > 25 µg/mL | – |
| O=S(=O)(Nc1ccc(-c2cn3cccnc3n2)cc1)c1cc(Cl)ccc1Cl [AB00370838] | 22.5 µg/mL | > 25 µg/mL | – |
| Cn1c(SCC(=O)N2c3ccccc3SC3C=CC=CC32)nnc1-c1ccccc1 (centres unmarked) [AB00370949] | 18.8 µg/mL | > 25 µg/mL | – |
| Cc1cc(C)n2nc(C(=O)Nc3cnn(C45CC6CC(CC(C6)C4)C5)c3)cc2n1 [AB00371387] | 12.7 µg/mL | > 25 µg/mL | – |
| Cc1cc(SCCC#N)nc2ccccc12 [AB00371866] | 13.7 µg/mL | > 25 µg/mL | – |
| CCOc1nc2sc3c(c2c2ncnn12)CCCC3 [AB00372085] | 11.6 µg/mL | > 25 µg/mL | – |
| O=c1c2c3c(sc2ncn1CCO)CCCC3 [AB00372624] | 23.6 µg/mL | > 25 µg/mL | – |
| N#CCCCCN1c2cccc3cccc(c23)S1(=O)=O [AB00373143] | 14.3 µg/mL | > 25 µg/mL | – |
| CCOC(=O)CCC(NC(=O)c1cnc(NCc2cnc3nc(N)nc(N)c3c2C)s1)C(=O)OCC (centres unmarked) [AB00375242] | 42 µM | > 50 µM | – |
| OCc1cccc2c(Br)cccc12 [AB00375379] | 39.2 µM | > 50 µM | – |
| N#Cc1c(Cl)nc(N)c(N)c1C(F)(F)F [AB00430151] | 38.4 µM | > 50 µM | – |
| NC(=O)c1ncn([C@@H]2O[C@H](CO)[C@@H](O)[C@H]2O)n1 [AB00430481] | 38.8 µM | > 50 µM | – |
| CNc1ncnc2c1ncn2[C@H]1C[C@@H](CO)[C@H](O)[C@@H]1O [AB00430484] | 33.7 µM | > 50 µM | – |
| Nc1c(N=Nc2ccc(-c3ccc(N=Nc4cc(S(=O)(=O)O)c5ccccc5c4N)cc3)cc2)cc(S(=O)(=O)O)c2ccccc12 [AB00443629] | 35.6 µM | > 50 µM | – |
| CC(C)CCCC(C)C1CC[C@@H]2[C@@H]3CC[C@@H]4CC(CCC=C(c5cc(Cl)c(O)c(C(=O)O)c5)c5cc(Cl)c(O)c(C(=O)O)c5)CC[C@]4(C)[C@@H]3CC[C@]12C (some centres unmarked) [AB00443953] | 21.3 µM | > 50 µM | – |
| O=S(=O)(O)c1cc(/N=N/c2cc(S(=O)(=O)O)c3cccnc3c2O)ccc1CCc1ccc(/N=N/c2cc(S(=O)(=O)O)c3cccnc3c2S)cc1S(=O)(=O)O [AB00444131] | 18.8 µM | > 50 µM | – |
| O=S(=O)(O)c1cc(/N=N/c2cc(S(=O)(=O)O)c3cccnc3c2O)ccc1/C=C/c1ccc(/N=N/c2cc(S(=O)(=O)O)c3cccnc3c2O)cc1S(=O)(=O)O [AB00444372] | 10.9 µM | > 50 µM | – |
| CCOc1ccc(Nc2nc3cc(S(=O)(=O)N(CC)CC)ccc3o2)cc1 [AB00536652] | 38.7 µM | > 50 µM | – |
